Test results as given in the supplement of paper PMC11451515.

Test system: SEM cells
Assay: cell viability relative to DMSO control; higher = less cytotoxic
Settings: 48 h
In short: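 Three leukemia lines were tested: NOMO1 and SEM at 500 cells/well and P12-Ichikawa at 1000 cells/well. Each was adapted for at least four passages in each medium and seeded in 5 μl in 1536-well plates, and library compounds in DMSO were pin-dosed from 47 μM to 0.79 nM in 11 threefold steps. After 48 h at 37°C, CellTiter-Glo One luminescence was read. Viability is a percentage relative to DMSO wells on each plate, with cell-free wells as background.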

[1] = HPLM + 10% dialyzed FBS, 0.000781 µM
[2] = HPLM + 10% dialyzed FBS, 0.00234 µM
[3] = HPLM + 10% dialyzed FBS, 0.00702 µM
[4] = HPLM + 10% dialyzed FBS, 0.0211 µM
[5] = HPLM + 10% dialyzed FBS, 0.0632 µM
[6] = HPLM + 10% dialyzed FBS, 0.19 µM
[7] = HPLM + 10% dialyzed FBS, 0.569 µM
[8] = HPLM + 10% dialyzed FBS, 1.71 µM
[9] = HPLM + 10% dialyzed FBS, 5.12 µM
[10] = HPLM + 10% dialyzed FBS, 15.4 µM
[11] = HPLM + 10% dialyzed FBS, 46.1 µM
[12] = RPMI 5 mM glucose + 10% FBS, 0.000781 µM
[13] = RPMI 5 mM glucose + 10% FBS, 0.00234 µM
[14] = RPMI 5 mM glucose + 10% FBS, 0.00702 µM
[15] = RPMI 5 mM glucose + 10% FBS, 0.0211 µM
[16] = RPMI 5 mM glucose + 10% FBS, 0.0632 µM
[17] = RPMI 5 mM glucose + 10% FBS, 0.19 µM
[18] = RPMI 5 mM glucose + 10% FBS, 0.569 µM
[19] = RPMI 5 mM glucose + 10% FBS, 1.71 µM
[20] = RPMI 5 mM glucose + 10% FBS, 5.12 µM
[21] = RPMI 5 mM glucose + 10% FBS, 15.4 µM
[22] = RPMI 5 mM glucose + 10% FBS, 46.1 µM
[23] = RPMI 5 mM glucose + 10% dialyzed FBS, 0.000781 µM
[24] = RPMI 5 mM glucose + 10% dialyzed FBS, 0.00234 µM
[25] = RPMI 5 mM glucose + 10% dialyzed FBS, 0.00702 µM
[26] = RPMI 5 mM glucose + 10% dialyzed FBS, 0.0211 µM
[27] = RPMI 5 mM glucose + 10% dialyzed FBS, 0.0632 µM
[28] = RPMI 5 mM glucose + 10% dialyzed FBS, 0.19 µM
[29] = RPMI 5 mM glucose + 10% dialyzed FBS, 0.569 µM
[30] = RPMI 5 mM glucose + 10% dialyzed FBS, 1.71 µM
[31] = RPMI 5 mM glucose + 10% dialyzed FBS, 5.12 µM
[32] = RPMI 5 mM glucose + 10% dialyzed FBS, 15.4 µM
[33] = RPMI 5 mM glucose + 10% dialyzed FBS, 46.1 µM

SMILES: C[C@]12COC(=O)C[C@@H]1CC[C@@H]1[C@@H]2CC[C@@]2(C)[C@H]1CC[C@]2(C)O
- cell viability [1]: 96.4%
- cell viability [2]: 97.7%
- cell viability [3]: 95.7%
- cell viability [4]: 105%
- cell viability [5]: 94%
- cell viability [6]: 93.3%
- cell viability [7]: 85.5%
- cell viability [8]: 96.6%
- cell viability [9]: 101%
- cell viability [10]: 86.3%
- cell viability [11]: 88.4%
- cell viability [12]: 105%
- cell viability [13]: 110%
- cell viability [14]: 104%
- cell viability [15]: 100%
- cell viability [16]: 106%
- cell viability [17]: 106%
- cell viability [18]: 105%
- cell viability [19]: 101%
- cell viability [20]: 95.9%
- cell viability [21]: 90%
- cell viability [22]: 78.4%
- cell viability [23]: 98.2%
- cell viability [24]: 109%
- cell viability [25]: 104%
- cell viability [26]: 111%
- cell viability [27]: 121%
- cell viability [28]: 109%
- cell viability [29]: 101%
- cell viability [30]: 92%
- cell viability [31]: 101%
- cell viability [32]: 89.5%
- cell viability [33]: 78.6%

SMILES: CCN1CCN(c2ccc(Nc3cc(N(C)C(=O)Nc4c(Cl)c(OC)cc(OC)c4Cl)ncn3)cc2)CC1
- cell viability [1]: 95%
- cell viability [2]: 63.6%
- cell viability [3]: 102%
- cell viability [4]: 93.3%
- cell viability [5]: 102%
- cell viability [6]: 96.9%
- cell viability [7]: 84.2%
- cell viability [8]: 82.9%
- cell viability [9]: 35.5%
- cell viability [10]: 17%
- cell viability [11]: 5.71%
- cell viability [12]: 90.1%
- cell viability [13]: 104%
- cell viability [14]: 92.3%
- cell viability [15]: 102%
- cell viability [16]: 84.2%
- cell viability [17]: 90.4%
- cell viability [18]: 73.4%
- cell viability [19]: 60.9%
- cell viability [20]: 5.11%
- cell viability [21]: 4.6%
- cell viability [22]: 1.95%
- cell viability [23]: 103%
- cell viability [24]: 84%
- cell viability [25]: 110%
- cell viability [26]: 96%
- cell viability [27]: 118%
- cell viability [28]: 95.6%
- cell viability [29]: 92.8%
- cell viability [30]: 71.6%
- cell viability [31]: 8.12%
- cell viability [32]: 6.53%
- cell viability [33]: 2.21%

SMILES: Cc1ccccc1C(=O)c1ccc(Nc2ccc(Br)cc2N)cc1Cl
- cell viability [12]: 96%
- cell viability [13]: 106%
- cell viability [14]: 97.7%
- cell viability [15]: 17.3%
- cell viability [16]: 109%
- cell viability [17]: 123%
- cell viability [18]: 112%
- cell viability [19]: 107%
- cell viability [20]: 106%
- cell viability [21]: 83.2%
- cell viability [22]: 18.2%
- cell viability [23]: 117%
- cell viability [24]: 121%
- cell viability [25]: 123%
- cell viability [26]: 21.4%
- cell viability [27]: 112%
- cell viability [28]: 102%
- cell viability [29]: 116%
- cell viability [30]: 110%
- cell viability [31]: 122%
- cell viability [32]: 86.3%
- cell viability [33]: 21.4%

SMILES: C[N]1C=C(C=N1)C2=C3\C=N/NC(=O)C4=C3C(=CC(=C4)NC(=O)[C@H](N)C5CCCCC5)[NH]2
- cell viability [1]: 87.7%
- cell viability [2]: 56.3%
- cell viability [3]: 85.5%
- cell viability [4]: 101%
- cell viability [5]: 79%
- cell viability [6]: 90.8%
- cell viability [7]: 68%
- cell viability [8]: 58.3%
- cell viability [9]: 36.5%
- cell viability [10]: 20.7%
- cell viability [11]: 11.6%
- cell viability [12]: 101%
- cell viability [13]: 67.1%
- cell viability [14]: 94.4%
- cell viability [15]: 99.2%
- cell viability [16]: 92.9%
- cell viability [17]: 103%
- cell viability [18]: 81.3%
- cell viability [19]: 50.8%
- cell viability [20]: 34.5%
- cell viability [21]: 22%
- cell viability [22]: 8.73%
- cell viability [23]: 79.8%
- cell viability [24]: 50.8%
- cell viability [25]: 95.1%
- cell viability [26]: 86.2%
- cell viability [27]: 89.5%
- cell viability [28]: 90%
- cell viability [29]: 59.3%
- cell viability [30]: 42.2%
- cell viability [31]: 25%
- cell viability [32]: 15.4%
- cell viability [33]: 7.21%

SMILES: O=C1NC(=O)/C(=C/c2ccc3nccc(-c4ccncc4)c3c2)S1
- cell viability [1]: 108%
- cell viability [2]: 104%
- cell viability [3]: 105%
- cell viability [4]: 107%
- cell viability [5]: 95.5%
- cell viability [6]: 74.5%
- cell viability [7]: 43.9%
- cell viability [8]: 49.5%
- cell viability [9]: 19.7%
- cell viability [10]: 13.7%
- cell viability [11]: 1.01%
- cell viability [12]: 115%
- cell viability [13]: 116%
- cell viability [14]: 134%
- cell viability [15]: 116%
- cell viability [16]: 108%
- cell viability [17]: 86.1%
- cell viability [18]: 55.4%
- cell viability [19]: 48.2%
- cell viability [20]: 23.9%
- cell viability [21]: 7.87%
- cell viability [22]: 1.09%
- cell viability [23]: 105%
- cell viability [24]: 103%
- cell viability [25]: 101%
- cell viability [26]: 111%
- cell viability [27]: 96.7%
- cell viability [28]: 67.8%
- cell viability [29]: 46.9%
- cell viability [30]: 43.4%
- cell viability [31]: 24.3%
- cell viability [32]: 12.8%
- cell viability [33]: 0.853%

SMILES: CC[S+](=O)([O-])c1cccc(-c2cc(C(=O)NC3CCN(C)CC3)c(C)c3[nH]c4ncc(C)cc4c23)c1
- cell viability [1]: 109%
- cell viability [2]: 103%
- cell viability [3]: 130%
- cell viability [4]: 110%
- cell viability [5]: 124%
- cell viability [6]: 101%
- cell viability [7]: 52.3%
- cell viability [8]: 38.6%
- cell viability [9]: 30.2%
- cell viability [10]: 18.8%
- cell viability [11]: 8.97%
- cell viability [12]: 114%
- cell viability [13]: 120%
- cell viability [14]: 140%
- cell viability [15]: 120%
- cell viability [16]: 138%
- cell viability [17]: 83.2%
- cell viability [18]: 46.6%
- cell viability [19]: 27.7%
- cell viability [20]: 20.6%
- cell viability [21]: 12.9%
- cell viability [22]: 5.92%
- cell viability [23]: 99.2%
- cell viability [24]: 92.5%
- cell viability [25]: 135%
- cell viability [26]: 127%
- cell viability [27]: 118%
- cell viability [28]: 82.6%
- cell viability [29]: 46%
- cell viability [30]: 31.9%
- cell viability [31]: 23.8%
- cell viability [32]: 20.6%
- cell viability [33]: 6.33%

SMILES: NNCCc1ccccc1
- cell viability [23]: 102%
- cell viability [24]: 120%
- cell viability [25]: 120%
- cell viability [26]: 127%
- cell viability [27]: 127%
- cell viability [28]: 112%
- cell viability [29]: 115%
- cell viability [30]: 127%
- cell viability [31]: 103%
- cell viability [32]: 117%
- cell viability [33]: 75.3%

SMILES: COCC1(CO)C(=O)C2CCN1CC2 (stereo unspecified)
- cell viability [1]: 76.2%
- cell viability [2]: 81.7%
- cell viability [3]: 112%
- cell viability [4]: 93.8%
- cell viability [5]: 96.3%
- cell viability [6]: 104%
- cell viability [7]: 4.05%
- cell viability [8]: 73.6%
- cell viability [9]: 87.1%
- cell viability [10]: 71%
- cell viability [11]: 10.3%
- cell viability [12]: 102%
- cell viability [13]: 105%
- cell viability [14]: 137%
- cell viability [15]: 134%
- cell viability [16]: 137%
- cell viability [17]: 144%
- cell viability [18]: 3.64%
- cell viability [19]: 111%
- cell viability [20]: 99.3%
- cell viability [21]: 77.2%
- cell viability [22]: 5.79%
- cell viability [23]: 70.2%
- cell viability [24]: 85.2%
- cell viability [25]: 118%
- cell viability [26]: 105%
- cell viability [27]: 124%
- cell viability [28]: 116%
- cell viability [29]: 3.95%
- cell viability [30]: 90.6%
- cell viability [31]: 103%
- cell viability [32]: 61.8%
- cell viability [33]: 16.9%
